Measurements as given in PMC5131319, “Occurrence, temporal trends, and half-lives of perfluoroalkyl acids (PFAAs) in occupational workers in China” (Scientific Reports, 2016).
Several values for one entry are separate records, joined by “and”; a condition that tells them apart may be missing. Identical values can stand only once. Like-named read-outs stand apart in the source and are kept apart here.

What was measured:
[1] = Daily renal clearance rate (Clrenal) and serum-to-urine ratio from paired serum and urine; type: in vivo, human; details: for Ratio of serum-to-urine concentrations (S/U), GM: all samples; for Clrenal, GM / Clrenal, range: all workers; for Clrenal, range: minimum on the basis of LOD/2; for Renal clearance rate (PFOS) / Renal clearance rate (PFOA): individual workers
Description: The positive correlations between the PFAAs in the serum and the paired urine samples were highly statistically significant, with correlation coefficients of 0.87, 0.64, and 0.72 for PFHxS, PFOA, and PFOS, respectively, (p < 0.01). […] Additionally, the relative abundances of PFOS, PFHxS, and PFOA between the serum and paired urine samples were quite different. The relative abundances in the serum are 64%, 24%, and 12%, respectively, while those in the urine were 19%, 31%, and 40%, respectively. […] Moreover, the ratio of serum-to-urine concentrations (S/U) might be an indicator for PFAA excretion in humans because PFAAs could concentrate in serum while urine excretion is considered an important PFAA elimination pathway. The GM values of S/U for PFHxS, PFOA, and PFOS in all samples were 697, 288, and 1782, respectively, indicating the difficulty in PFAA renal elimination from the workers. To exclude the potential effect of individual differences related to demographic information such as body weight and gender, the daily renal clearance rate (Clrenal) was introduced in the study. Clrenal is a parameter defined in Eq (3) that adjusts the S/U through body weight and the gender-specific daily urine excretion volume.
Paired samples with either concentration under the LOD were set as LOD/2 in the Clrenal study. The urine excretion volumes of males and females were set at 1.4 and 1.2 L/day in the study, respectively, and the body weight values of individual workers were obtained from our questionnaires. The calculated Clrenal values for PFHxS, PFOA, PFOS ranged from 2.0 × 10^−4 to 2.3, 9.0 × 10^−5 to 2.4, and 5.0 × 10^−5 to 0.54 mL day^−1 kg^−1 with GM values of 0.023, 0.067 and 0.010 mL day^−1 kg^−1, respectively (Fig. 3). The minimum values of the PFAAs Clrenal were calculated on the basis of LOD/2 instead of ND (not detected) in the present study. […] However, Zhang et al. observed that the Clrenal of PFHxS was the lowest among these 3 type of PFAAs[28]. The median Clrenal of PFAAs in the present study was similar to that of Zhou et al.’s study (0.012 mL day^−1 kg^−1 for PFHxS, 0.061 mL day^−1 kg^−1 for PFOA, and 0.010 mL day^−1 kg^−1 for PFOS)[39]. In contrast, as noted elsewhere, the Clrenal values of PFOA were the highest among those of the three PFAAs[28][38]. The most recent study on the elevated serum concentrations of PFAAs in fishery employees from Tangxun Lake also stated that the median Clrenal of PFOA (0.061 mL day^−1 kg^−1) was higher than those of the PFHxS and PFOS (0.012 and 0.010 mL day^−1 kg^−1)[39]. […] Moreover, the renal clearance rates of PFAAs in humans were not obviously influenced by the PFAAs level in the serum. […] In addition, gender could not be discounted. The Clrenal values of PFOS for the male workers were significant lower than those for the females (p < 0.01). Wong et al. studied the elimination rate constant of PFOS in a USA population and speculated that there might be other sex-specific elimination routes other than menstruation between men and women. No significant differences were found between the Clrenal values of PFOA and PFHxS for the males and females tested in the study.

[2] = Half-life estimated by annual decline rates of serum PFAAs (first-order model); type: in vivo, human; details: for half-life: human
Description: Olsen et al.[21] found linear relationship between the logarithm of serum PFAAs concentration and time, and a first order model was adopted to estimate the half-lives of PFAAs. The elimination of PFAAs in humans was also described with the following equation: […]
If we set C(t) as 1/2C0, then the half-life
where k is the elimination rate constant. We calculated k using two approaches in the present study. In the first approach, k is defined as Cltotal/Vd, where Vd stands for the volume of distribution of PFAAs in the human body. Cltotal represents the total daily PFAAs clearance in the human body; for men and women older than 50, it refers to renal clearance, while for young women, it is defined as the sum of menstrual clearance and renal clearance. To keep consistency with other studies, Vd of PFOS and PFHxS were set at 230 mL kg^−1, and Vd of PFOA was set at 170 mL kg^−1 in this study. In the second approach, k is defined as the average annual decline rates of PFAAs in workers who participated in this study.
Serum PFAAs of workers were sequentially measured for 5 years, and they fluctuated during our sampling period, although different serum PFAAs decreased in certain years. […] For PFOA, 31 out of 42 workers decreased in the period of 2011–2012, and the serum PFOA concentration dropped by 41%. […] We assumed that there were no new inputs of PFAAs in these workers, and thus k in Eq (2) was set as the average annual serum PFAA decline rate. The half-lives of PFHxS, PFOA, and PFOS estimated by Eq (2) were 3.6, 1.7, and 1.9 years.

[3] = cited from earlier work; for Serum concentration, median: workers in another fluorochemical plant in China
[4] = parameters: method as in PMID 23980546, PMID 12499116, PMID 20236705; details: set value; cited from earlier work
[5] = k = average annual serum decline rate, no new inputs assumed, two time points

Structure (SMILES)	Ratio of serum-to-urine concentrations (S/U), GM [1]	Clrenal, GM [1] [mL/day/kg]	Clrenal, range [1]	Renal clearance rate (PFOS) ([1]; sampling year 2009)	Renal clearance rate (PFOS) ([1]; sampling year 2010)	Renal clearance rate (PFOS) ([1]; sampling year 2011)	Average annual decline rate of serum concentration ([2]; 2008 to 2009, 36 workers) [%]	Half-life estimated by annual decline rates [2, 5] [years]	Serum concentration in 85 percent of the sampled Chinese population ([3]; general population)	Serum concentration, median [3] [µg/mL]	Serum concentration, geometric mean ([3]; workers of the 3 M Company) [µg/mL]	Vd (volume of distribution in the human body) [4] [L/kg]	Annual drop of serum concentration ([2]; 2009 to 2010, 37 workers) [%]	half-life [2, 5] [days]	Renal clearance rate (PFOA) ([1]; sampling year 2008)	Renal clearance rate (PFOA) ([1]; sampling year 2009)	Renal clearance rate (PFOA) ([1]; sampling year 2011)	Renal clearance rate (PFOA) ([1]; sampling year 2012)	Drop of serum concentration ([2]; 2011–2012, 42 workers) [%]	Serum concentration, geometric mean ([3]; occupational workers of Wang et al.) [µg/mL]
O=S(=O)(O)C(F)(F)C(F)(F)C(F)(F)C(F)(F)C(F)(F)C(F)(F)C(F)(F)C(F)(F)F [PFOS, perfluorooctanesulfonate]	1782	0.010	5.0 × 10^−5 to 0.54 mL day^−1 kg^−1	0.028 mL/day/kg and 0.066 mL/day/kg and 0.010 mL/day/kg and 0.013 mL/day/kg and 0.009 mL/day/kg and 0.037 mL/day/kg and 0.018 mL/day/kg and 0.001 mL/day/kg and 0.035 mL/day/kg and 0.004 mL/day/kg and 0.005 mL/day/kg and 0.006 mL/day/kg and 0.003 mL/day/kg and 0.019 mL/day/kg and 0.023 mL/day/kg and 0.007 mL/day/kg and 0.017 mL/day/kg and 0.024 mL/day/kg and 0.030 mL/day/kg and 0.014 mL/day/kg and 0.002 mL/day/kg and 0.032 mL/day/kg	0.038 mL/day/kg and 0.013 mL/day/kg and 0.014 mL/day/kg and 0.058 mL/day/kg and 0.002 mL/day/kg and 0.004 mL/day/kg and 0.048 mL/day/kg and 0.039 mL/day/kg and 0.008 mL/day/kg and 0.005 mL/day/kg and 0.028 mL/day/kg and 0.009 mL/day/kg and 0.041 mL/day/kg and 0.007 mL/day/kg and 0.027 mL/day/kg and 0.026 mL/day/kg and 0.006 mL/day/kg and 0.034 mL/day/kg and 0.083 mL/day/kg and 0.020 mL/day/kg and 0.017 mL/day/kg and 0.025 mL/day/kg and 0.010 mL/day/kg	0.007 mL/day/kg and 0.009 mL/day/kg and 0.024 mL/day/kg and 0.052 mL/day/kg and 0.018 mL/day/kg and 0.016 mL/day/kg and 0.028 mL/day/kg and 0.021 mL/day/kg and 0.017 mL/day/kg and 0.029 mL/day/kg and 0.004 mL/day/kg and 0.006 mL/day/kg and 0.003 mL/day/kg and 0.025 mL/day/kg and 0.001 mL/day/kg and 0.013 mL/day/kg and 0.023 mL/day/kg and 0.022 mL/day/kg and 0.020 mL/day/kg and 0.033 mL/day/kg and 0.002 mL/day/kg and 0.091 mL/day/kg and 0.039 mL/day/kg and 0.041 mL/day/kg	37	1.9	less than 100 ng mL^−1	0.0335	0.91	0.23	–	–	–	–	–	–	–	–
O=S(=O)(O)C(F)(F)C(F)(F)C(F)(F)C(F)(F)C(F)(F)C(F)(F)F [PFHxS, perfluorohexane sulfonate]	697	0.023	2.0 × 10^−4 to 2.3 mL day^−1 kg^−1	–	–	–	–	–	–	0.00098	–	0.23	19	1310	–	–	–	–	–	–
O=C(O)C(F)(F)C(F)(F)C(F)(F)C(F)(F)C(F)(F)C(F)(F)C(F)(F)F [PFOA, perfluorooctanoic acid]	288	0.067	9.0 × 10^−5 to 2.4 mL day^−1 kg^−1	–	–	–	–	–	–	–	1.13	0.17	–	621	0.093 mL/day/kg and 0.043 mL/day/kg and 0.141 mL/day/kg and 0.074 mL/day/kg and 0.069 mL/day/kg and 0.087 mL/day/kg and 0.012 mL/day/kg and 0.060 mL/day/kg and 0.127 mL/day/kg and 0.027 mL/day/kg and 0.068 mL/day/kg and 0.030 mL/day/kg and 0.111 mL/day/kg and 0.033 mL/day/kg and 0.047 mL/day/kg and 0.161 mL/day/kg and 0.052 mL/day/kg and 0.214 mL/day/kg and 0.096 mL/day/kg and 0.055 mL/day/kg and 0.042 mL/day/kg and 0.106 mL/day/kg and 0.021 mL/day/kg and 0.157 mL/day/kg and 0.058 mL/day/kg and 0.034 mL/day/kg	0.174 mL/day/kg and 0.318 mL/day/kg and 0.286 mL/day/kg and 0.110 mL/day/kg and 0.366 mL/day/kg and 0.046 mL/day/kg and 0.403 mL/day/kg and 0.070 mL/day/kg and 0.128 mL/day/kg and 0.090 mL/day/kg and 0.114 mL/day/kg and 0.071 mL/day/kg and 0.289 mL/day/kg and 0.235 mL/day/kg and 0.096 mL/day/kg and 0.264 mL/day/kg and 0.117 mL/day/kg and 0.057 mL/day/kg and 0.051 mL/day/kg and 0.262 mL/day/kg and 0.197 mL/day/kg and 0.077 mL/day/kg and 0.363 mL/day/kg	0.101 mL/day/kg and 0.205 mL/day/kg and 0.124 mL/day/kg and 0.077 mL/day/kg and 0.096 mL/day/kg and 0.081 mL/day/kg and 0.014 mL/day/kg and 0.080 mL/day/kg and 0.027 mL/day/kg and 0.082 mL/day/kg and 0.120 mL/day/kg and 0.066 mL/day/kg and 0.057 mL/day/kg and 0.037 mL/day/kg and 0.063 mL/day/kg and 0.270 mL/day/kg and 0.075 mL/day/kg and 0.060 mL/day/kg and 0.085 mL/day/kg and 0.181 mL/day/kg and 0.107 mL/day/kg and 0.258 mL/day/kg and 0.674 mL/day/kg and 0.290 mL/day/kg and 0.300 mL/day/kg and 0.058 mL/day/kg	0.089 mL/day/kg and 0.052 mL/day/kg and 0.038 mL/day/kg and 0.045 mL/day/kg and 0.082 mL/day/kg and 0.114 mL/day/kg and 0.012 mL/day/kg and 0.044 mL/day/kg and 0.098 mL/day/kg and 0.049 mL/day/kg and 0.030 mL/day/kg and 0.027 mL/day/kg and 0.029 mL/day/kg and 0.054 mL/day/kg and 0.033 mL/day/kg and 0.199 mL/day/kg and 0.105 mL/day/kg and 0.069 mL/day/kg and 0.236 mL/day/kg and 0.139 mL/day/kg and 0.040 mL/day/kg and 0.084 mL/day/kg and 0.170 mL/day/kg	41	1.272
